Measurements from patent publication US8232273B2, “Heterocyclic compounds and methods of use” (Genentech, Inc., priority 2008, dated 2012).

Legend:
Bcl-xL (GST-Bcl-xL) [1] = target: T1, Bcl-xL (GST-Bcl-xL) (Homo sapiens, UniProt Q07817); test: AlphaScreen Bcl-xL binding assay, competition with biotinylated Bim peptide; set-up: made in house; conditions: values listed in the order of Table 1; read-out: Alphascreen results (IC50) against the Bcl-xL protein
Description: The measurement of competition of compounds of the invention with Bim26-mer for a Bcl-2 family protein binding site using an Alpha Screen Bcl-xL binding assay:
The BH3 proteins AlphaScreen™ assay was used to identify active small molecules Bcl-2 family protein screen, e.g., Bcl-xL, hmMcl-1 screen.
The beads come in close proximity when the protein and the peptides interact. Donor beads contain a photosensitiser that converts oxygen to an excited form of O2 at an excitation of 680 nm. Energy is transformed from the singlet oxygen and reacts with chemiluminescers on the acceptor bead, resulting in light emission at 520-620 nm. […] With this information, the IC50 of each compound was calculated
GST-Bcl-xL, GST-hmMcl-1 and biotinylated GST proteins were prepared in-house and were stored as stock solutions at −80° C. The biotinylated-Bak, and biotinylated-Bim peptides were purchased from Auspep and were stored as 500 μM stock solutions in 100% DMSO at −80° C. […] DMSO was purchased from AnalaR.
Compounds of the invention were prepared as 10 mM stocks with 100% DMSO on the day prior to performing the assay. […] To achieve a final compound concentration of 1 μM, in a separate matrical plate, 28 μL of 100% DMSO and 2 μL of 10 mM compound was added to a well, mixed well, 2 μL of this solution was taken and added to 38 μL of 100% DMSO. 20 μL of this solution was added to the test matrical plate. Several control compounds were included in the test plates. For the control wells 15 μL 100% DMSO only was added to the appropriate wells of each plate. The compound plates were then serially diluted 2 fold using the MiniTrak. Once titrations were complete, the compound plate was immediately covered with a foil seal to prevent evaporation.
The assay and bead buffers were prepared fresh. Each titrated compound plate was assayed in duplicate. The following volumes were sufficient to run 12 Proxiplates (4 assay plates run in duplicate in each of Bclxl, hmMcl and counter assays)
Protein and Peptide Preparation; and Assay Performance • 1. The assay and bead buffers were used to prepare the acceptor and donor solutions. ALPHASCREEN™ beads are light sensitive and therefore prepared in a darkened room. 2.5 μL of beads were added per 1 mL of buffer. • 2. The volume of protein or peptide to add was calculated using the following formula:
V2=Volume of stock protein/Peptide to add to Acceptor/Donor solution • 3. The assay components were prepared as separate Acceptor and Donor Solutions. The Acceptor Solution contained Acceptor beads and target protein, while the Donor Solution contained Donor beads and biotinylated peptide.
• 4. After the solutions were prepared, they were left to incubate for 30 minutes at room temperature to allow the beads to bind to the protein and the peptide. • 5. 50 μL of Bcl-xL solution, 50 μL of hmMcl-1 solution and 50 μL of biotinylated-GST were added into separate deep wells on an assay plate. A control 50 μL Assay/Bead buffer was added separate well plates (no protein). • 6. 50 μL of Bim solution and 50 μL of Bak solution were added into separate deep well plates. • 7. Transfer 0.3 μL it of sample from the compound plate into each assay plate. • 8. Incubated for 30 mins at RT, then add 5 μL of the Donor solution. After addition of the Donor solution, tapped plates gently and sealed individually with adhesive film. • 9.
The percent inhibition was calculated using the following equation:
[formula] • x=RFU obtained after compound treatment • μ^−=RFU obtained for the negative controls (no protein controls) • μ^+=RFU obtained for the positive controls (DMSO vehicle controls)

Bcl-xL (GST-Bcl-xL) [2] = target: T1, Bcl-xL (GST-Bcl-xL); test: TR-FRET binding assay, competition with F-Bak for the Bcl-xL binding site; conditions: values listed in the order of Table 1, read-out: TR-FRET assay results (Ki), Bcl-xL
Experimental: The measurement of competition of compounds of the invention with F-Bak for a Bcl-2 family protein (Bcl-xL) binding site using a Time Resolved Fluorescence Resonance Energy Transfer (TR-FRET) binding assay:
Test compounds were serially diluted in DMSO starting at 50 μM (2× starting concentration; 10% DMSO) and 10 μt transferred into a 384-well plate.
The samples are then mixed on a shaker for 1 minute then incubated for an additional 2 hours at room temperature. For each assay plate, a probe/antibody and protein/antibody/probe mixture were included as a negative and a positive control, respectively. Fluorescence was measured on the Envision (Perkin Elmer) using a 340/35 nm excitation filter and 520/525 (F-Bak) and 495/510 nm (Tb-labeled anti-his antibody) emission filters. Dissociation constants (Ki) were determined using Wang's equation (see, Wang, Z. X. An exact mathematical expression for describing competitive binding of two different ligands to a protein molecule. FEBS Lett. 1995 360:111-114). The TR-FRET assay can be performed in the presence of varying concentrations of human serum (HS) or fetal bovine serum (FBS).

T1 sequence (Q07817 whole entry, species assumed): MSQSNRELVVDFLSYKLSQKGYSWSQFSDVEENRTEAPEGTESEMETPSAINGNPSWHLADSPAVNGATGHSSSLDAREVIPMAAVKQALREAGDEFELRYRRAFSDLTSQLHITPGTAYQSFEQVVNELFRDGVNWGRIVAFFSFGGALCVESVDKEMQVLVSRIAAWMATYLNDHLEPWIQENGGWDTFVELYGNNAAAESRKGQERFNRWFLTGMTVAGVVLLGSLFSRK

Row | SMILES | IC50 (Bcl-xL (GST-Bcl-xL) [1]) [nM] | Ki (Bcl-xL (GST-Bcl-xL) [2]) [nM]
1 | CN(C)CC#Cc1ccc(OCCCc2sc(N3CCc4cccc(C(=O)Nc5nc6ccccc6s5)c4C3)nc2C(=O)O)c(Cl)c1 [Compound 119, 2-(8-(benzo[d]thiazol-2-ylcarbamoyl)-3,4-dihydroisoquinolin-2(1H)-yl)-5-(3-(2-chloro-4-(3-(dimethylamino)prop-1-ynyl)phenoxy)propyl)thiazole-4-carboxylic acid] | 0.2 | 0.04
2 | O=C(O)c1cccc(N2CCc3cccc(C(=O)Nc4nc5ccccc5s4)c3C2)n1 [Compound 120, 6-(8-(benzo[d]thiazol-2-ylcarbamoyl)-3,4-dihydroisoquinolin-2(1H)-yl)picolinic acid] | 310 | 150
3 | O=C(Nc1nc2ccccc2s1)c1cccc2c1CN(c1ccc(CCCOc3ccccc3)c(C(=O)O)n1)CC2 [Compound 121, 6-(8-(benzo[d]thiazol-2-ylcarbamoyl)-3,4-dihydroisoquinolin-2(1H)-yl)-3-(3-phenoxypropyl)picolinic acid] | 136 | 10.6
4 | O=C(Nc1nc2ccccc2s1)c1cccc2c1CN(c1ccc(-c3ccccc3)c(C(=O)O)n1)CC2 [Compound 125, 6-(8-(benzo[d]thiazol-2-ylcarbamoyl)-3,4-dihydroisoquinolin-2(1H)-yl)-3-phenylpicolinic acid] | 124 | 66.2
5 | Cc1ccccc1-c1ccc(N2CCc3cccc(C(=O)Nc4nc5ccccc5s4)c3C2)nc1C(=O)O [Compound 126, 6-(8-(benzo[d]thiazol-2-ylcarbamoyl)-3,4-dihydroisoquinolin-2(1H)-yl)-3-o-tolylpicolinic acid] | 77.6 | 197
6 | O=C(Nc1nc2ccccc2s1)c1cccc2c1CN(c1ccc(CCc3ccccc3)c(C(=O)O)n1)CC2 [Compound 127, 6-(8-(benzo[d]thiazol-2-ylcarbamoyl)-3,4-dihydroisoquinolin-2(1H)-yl)-3-phenethylpicolinic acid] | 598 | 660
7 | CN(C)CCOc1ccc(OCCCc2ccc(N3CCc4cccc(C(=O)Nc5nc6ccccc6s5)c4C3)nc2C(=O)O)cc1 [Compound 132, 6-(8-(benzo[d]thiazol-2-ylcarbamoyl)-3,4-dihydroisoquinolin-2(1H)-yl)-3-(3-(4-(2-(dimethylamino)ethoxy)phenoxy)propyl)picolinic acid] | 0.9 | 0.18
8 | CN(C)CC#Cc1ccc(OCCCc2ccc(N3CCc4cccc(C(=O)Nc5nc6ccccc6s5)c4C3)nc2C(=O)O)cc1 [Compound 133, 6-(8-(benzo[d]thiazol-2-ylcarbamoyl)-3,4-dihydroisoquinolin-2(1H)-yl)-3-(3-(4-(3-(dimethylamino)prop-1-ynyl)phenoxy)propyl)picolinic acid] | 1.2 | 0.023
9 | O=C(Nc1nc2ccccc2s1)c1cccc2c1CN(c1ccc(/C=C/c3ccccc3)c(C(=O)O)n1)CC2 [Compound 135, (E)-6-(8-(benzo[d]thiazol-2-ylcarbamoyl)-3,4-dihydroisoquinolin-2(1H)-yl)-3-styrylpicolinic acid] | 92.4 | 
10 | COc1ccc(COc2ccc(N3CCc4cccc(C(=O)Nc5nc6ccccc6s5)c4C3)nc2C(=O)O)cc1 [Compound 136, 6-(8-(benzo[d]thiazol-2-ylcarbamoyl)-3,4-dihydroisoquinolin-2(1H)-yl)-3-(4-methoxybenzyloxy)picolinic acid] | 19000 | 
11 | O=C(Nc1nc2ccccc2s1)c1cccc2c1CN(c1ccc(CCCc3ccccc3)c(C(=O)O)n1)CC2 [Compound 137, 6-(8-(benzo[d]thiazol-2-ylcarbamoyl)-3,4-dihydroisoquinolin-2(1H)-yl)-3-(3-phenylpropyl)picolinic acid] | 30 | 
12 | O=C(Nc1nc2ccccc2s1)c1cccc2c1CN(c1ccc(/C=C/Cc3ccccc3)c(C(=O)O)n1)CC2 [Compound 138, (E)-6-(8-(benzo[d]thiazol-2-ylcarbamoyl)-3,4-dihydroisoquinolin-2(1H)-yl)-3-(3-phenylprop-1-enyl)picolinic acid] | 3 | 
13 | NCc1ccc(OCCCc2sc(N3CCc4cccc(C(=O)Nc5nc6ccccc6s5)c4C3)nc2C(=O)O)cc1 [Compound 141, 5-(3-(4-(aminomethyl)phenoxy)propyl)-2-(8-(benzo[d]thiazol-2-ylcarbamoyl)-3,4-dihydroisoquinolin-2(1H)-yl)thiazole-4-carboxylic acid] | 3800 | 0.487
14 | O=C(O)c1csc(N2CCc3cccc(C(=O)Nc4nc5ccccc5s4)c3C2)n1 [Example 1, 2-(8-(Benzo[d]thiazol-2-ylcarbamoyl)-3,4-dihydroisoquinolin-2(1H)-yl)thiazole-4-carboxylic acid] | 100 | 77
15 | O=C(Nc1nc2ccccc2s1)c1cccc2c1CN(c1nc(C(=O)O)c(CCCSc3ccncc3)s1)CC2 [Example 3, 2-(8-(benzo[d]thiazol-2-ylcarbamoyl)-3,4-dihydroisoquinolin-2(1H)-yl)-5-(3-(pyridin-4-ylthio)propyl)thiazole-4-carboxylic acid] | 1 | 0.2
16 | CC(C)(C)OC(=O)Nc1ccc(OCCCc2sc(N3CCc4cccc(C(=O)Nc5nc6ccccc6s5)c4C3)nc2C(=O)O)cc1 [Example 4, 2-(8-(benzo[d]thiazol-2-ylcarbamoyl)-3,4-dihydroisoquinolin-2(1H)-yl)-5-(3-(4-(tert-butoxycarbonylamino)phenoxy)propyl)thiazole-4-carboxylic acid] | 0.8 | 0.3
17 | CC(C)(C)OC(=O)Nc1cccc(OCCCc2sc(N3CCc4cccc(C(=O)Nc5nc6ccccc6s5)c4C3)nc2C(=O)O)c1 [Example 5, 2-(8-(benzo[d]thiazol-2-ylcarbamoyl)-3,4-dihydroisoquinolin-2(1H)-yl)-5-(3-(3-(tert-butoxycarbonylamino)phenoxy)propyl)thiazole-4-carboxylic acid] | 2 | 1
18 | Nc1ccc(OCCCc2sc(N3CCc4cccc(C(=O)Nc5nc6ccccc6s5)c4C3)nc2C(=O)O)cc1 [Example 6, 5-(3-(4-aminophenoxy)propyl)-2-(8-(benzo[d]thiazol-2-ylcarbamoyl)-3,4-dihydroisoquinolin-2(1H)-yl)thiazole-4-carboxylic acid] | 2 | 0.2
19 | O=C(Nc1nc2ccccc2s1)c1cccc2c1CN(c1nc(C(=O)O)c(CCCn3cccn3)s1)CC2 [Example 7, 5-(3-(1H-pyrazol-1-yl)propyl)-2-(8-(benzo[d]thiazol-2-ylcarbamoyl)-3,4-dihydroisoquinolin-2(1H)-yl)thiazole-4-carboxylic acid] | 25 | 7
20 | O=C(Nc1nc2ccccc2s1)c1cccc2c1CN(c1ccc(CCCOc3ccc(OCCN4CCCC4)cc3)c(C(=O)O)n1)CC2 [Example 106, 6-(8-(benzo[d]thiazol-2-ylcarbamoyl)-3,4-dihydroisoquinolin-2(1H)-yl)-3-(3-(4-(2-(pyrrolidin-1-yl)ethoxy)phenoxy)propyl)picolinic acid] | 1.1 | 
